Earlier results on one molecule are cited in US20060094734A1, “Composition and method for inducing alertness” (priority 2004, published 2006).

The data set concerns rats. The note with it: rat, in vivo.

For the molecule `NCCS(=O)(=O)O` [taurine, 2-aminoethanesulfonic acid], the “LD 50” value is listed as “greater than 5,000 mg/kg”.
